Measurements from article PMC10743653, “Combined In Silico and In Vitro Analyses to Assess the Anticancer Potential of Thiazolidinedione–Thiosemicarbazone Hybrid Molecules” (International Journal of Molecular Sciences, 2023).

How the values were obtained:
Type in all cases: cell-based, human
HepG2 cells [1] = experiment: MTT assay, HepG2; conditions: for IC50: Homo sapiens, HepG2, MTT, 24 h treatment, mean ± SD; for SI (selectivity index): IC50 CCD 841 CoTr divided by IC50 HepG2
Procedure: The effects of TZD–TSCs 2–5 on the cellular viability of a panel of cell lines were investigated through an 3-(4,5-dimethylthiazol-2-yl)-2,5-diphenyl-2H-tetrazolium bromide (MTT) assay, following a 24 h treatment with the compounds. The panel consisted of three solid tumor cells: T98G (glioblastoma multiforme), HepG2 (hepatocellular carcinoma, epithelial), and HT29 (colon adenocarcinoma, epithelial), as well as noncancerous cells CCD 841 CoTr (normal colon, epithelial).
Primary single dose screenings of TZD–TSCs 2–5 were performed at a concentration of 200 μg/mL, and those that elicited a greater than 80% inhibition of cell proliferation were analyzed at several concentrations, to find their half-maximal inhibitory concentration (IC50). The IC50 values, reported as the mean ± SD in Table 2, indicate the concentration of the tested compound that inhibits the growth/viability of the cancer cell population by 50%. In this specific case of an MTT assay, which measures the activity of mitochondrial dehydrogenases (as an indicator of cell viability), the IC50 values stand for the concentration that inhibits the metabolic activity of cells by 50%.
Human colon adenocarcinoma cells, HT29 (ATCC no. HTB-38), derived from a grade I tumor, were cultured in roswell park memorial institute Medium (RPMI) 1640 medium, supplemented with 10% fetal calf serum (FCS) (GibcoTM, Paisley, UK) and antibiotics (100 U/mL penicillin and 100 μg/mL streptomycin) (Sigma, St. Louis, MO), at 37 °C in a humidified atmosphere with 5% CO2. Human normal colon epithelial cells, CCD 841 CoTr (ATCC no. CRL-1807), were cultured in RPMI 1640 + dulbecco’s modified eagle medium (DMEM) (1:1) medium (Sigma, St. Louis, MO), supplemented with 10% FCS and antibiotics, at 34 °C in a 5% CO2/95% air atmosphere. Human glioblastoma T98G cells were cultured in Dulbecco’s Modified Eagle’s Medium (DMEM) (Sigma Aldrich, St. Louis, MO, USA), supplemented with 10% fetal bovine serum (FBS), penicillin (100 U/mL), and streptomycin (100 μg/mL). Human hepatocellular carcinoma cells, HepG2, were maintained in Eagle’s Minimum Essential Medium, supplemented with 10% FBS, penicillin (100 U/mL), and streptomycin (100 μg/mL).
After 24 h of incubation of the cells with the tested compounds in 100 μL of culture medium, MTT solution (5 mg/mL, 25 μL/well) was added and incubated for an additional 3 h. The purple crystals of formazan which formed in the medium were solubilized overnight in 10% sodium dodecyl sulphate (SDS) in a 0.01 M HCl mixture. The product was quantified spectrophotometrically by measuring its absorbance at 570 nm using an Emax Microplate Reader (Molecular Devices Corporation, Menlo Park, CA, USA).

HepG2 cells [2] = experiment: ECM cell invasion assay (colorimetric), HepG2
Procedure: The anti-invasion effects of 2 and 3 were examined using a Cell Invasion Assay Kit (ECM550, CHEMICON—Millipore Co., Billerica, MA, USA). In brief, 10^5 tumor cells were suspended in medium with 10% FBS and plated into the upper chamber, containing 8 μm pore size polycarbonate membrane precoated with ECMatrix, followed by filling the lower chamber with the same medium, enriched with the investigated compounds. Afterwards, cells were incubated for 24 h and allowed to invade towards the bottom chamber (with medium + 10% FBS). The non-invading cells on the upper membrane surface were removed with a cotton swab and the invasive cells, i.e., cells attached to the lower membrane surface, were stained with 0.1% crystal violet. For colorimetric quantitation, the stained cells were dissolved in 10% acetic acid (200 μL/well) and the obtained solution was transferred to a 96-well plate for spectrometric measurements, at a wavelength of 560 nm.

HepG2 cells [3] = experiment: Cell cycle analysis (image cytometry, DAPI); conditions: 24 h at IC50 concentration (2.97 μM); control 6.02 ± 0.21%; mean ± SD
Procedure: HDAC inhibitors, in combination therapy with PPARγ agonists, exert synergistic/additive cytotoxic effects on cancer cells, resulting in proliferation arrest and increased cancerous cell apoptosis.
HepG2 cells were seeded on 6-well culture plates (Corning Inc., NY, USA) at the density of 1 × 10^5 cells/mL and cultured in the respective medium at 37 °C in a humidified atmosphere of 5% CO2. When the cells reached approximately 80–90% confluence, they were treated with 3, at a concentration of IC50, for 24 h. Subsequently, the cells were detached with trypsine, suspended in 250 μL of lysis buffer (Solution 10), supplemented with DAPI (10 μg/mL), and incubated for 5 min at 37 °C. Next, stabilization buffer (Solution 11) was added and the obtained cell suspension was applied on a NC slide and analyzed using a NucleoCounter NC-3000 Image Cytometer equipped with NucleoView software (https://chemometec.com/software/nucleoview/ (accessed on 20 November 2023). Experiments were repeated three times and the measurements in each experiment were run in duplicate.

SMILES	IC50 (HepG2 cells [1]) [µM]	SI (selectivity index) (HepG2 cells [1])	Invasion through artificial ECM model (HepG2 cells [2]; HepG2, 1/10 IC50 to IC50, 24 h)	Invasion through artificial ECM model (HepG2 cells [2]; HepG2, lowest concentration tested (1/10 of the IC50), 24 h)	Percentage of HepG2 cells in sub-G1 phase (HepG2 cells [3]) [%]
O=C(C=C1SC(=O)NC1=O)Oc1ccccc1C=NNC(=S)Nc1ccccc1Cl [TZD–TSC 2]	10.4 ± 0.72	4.30	exhibited inhibitory effects	did not reduce the number of invaded cells	–
O=C(C=C1SC(=O)NC1=O)Oc1ccccc1C=NNC(=S)Nc1cccc(Cl)c1 [TZD–TSC 3]	2.97 ± 0.39	33.80	exhibited inhibitory effects	–	40.36 ± 3.11
